The numbers were not newly measured in patent publication US8034799B2, “Preventing and/or treating cardiovascular disease and/or associated heart failure” (Philera New Zealand Limited, priority 2002, dated 2011), which cites them from elsewhere.

Molecules are shown by their SMILES.

This data set deals with diabetic rats. The following applies: treatment of diabetic rats; cited from earlier work.

With `N=C(N)NN` [aminoguanidine], the aortic impedance result is listed as “decreases”, the carotid artery compliance entry was “increased” and the myocardial compliance result was “prevented the decreased myocardial compliance”.
